Assay results reported in patent US20090143279A1 (priority 2007, published 2009).
Read-outs that look alike come from different tables or passages of the source.

Assays:
C2C12 myotubes = conditions: for Viability (composite Z-score): normalized score vs mock-treated (DMSO) wells
mtOXPHOS transcripts = type: cell-based, mouse; conditions: for mitoOX (composite Z-score): normalized score vs mock-treated (DMSO) wells
[1] = tested on: cellular dehydrogenase activity; conditions: for MTT (composite Z-score): normalized score vs mock-treated (DMSO) wells
OXPHOS gene expression = type: cell-based, mouse; conditions: for GE-HTS (composite Z-score): normalized score vs mock-treated (DMSO) wells
nuOXPHOS transcripts = type: cell-based, mouse; conditions: for nucOX (composite Z-score): normalized score vs mock-treated (DMSO) wells
reactive oxygen species = type: cell-based, mouse; conditions: for ROS (composite Z-score): normalized score vs mock-treated (DMSO) wells
[2] = tested on: mitochondrial membrane potential; type: cell-based, mouse; conditions: for ΔΨm (composite Z-score): normalized score vs mock-treated (DMSO) wells
cytochrome c = type: cell-based, mouse; conditions: for cyt c (composite Z-score): normalized score vs mock-treated (DMSO) wells
[3] = composite Z-score vs DMSO wells, Conc 20 μM
[4] = 20 μM, composite Z-score vs DMSO
[5] = 13.86 μM, composite Z-score vs DMSO
[6] = composite Z-score vs DMSO, Conc 20 μM
[7] = composite Z-score vs mock-treated (DMSO) wells, Conc 20 μM
[8] = normalized composite Z-score vs mock-treated (DMSO) wells, Conc 20 μM

Oc1c(Cl)cc(Cl)cc1Sc1cc(Cl)cc(Cl)c1O [bithionol]
Viability (C2C12 myotubes; [3]): −2.247 | mitoOX (mtOXPHOS transcripts; [3]): −1.838 | MTT [1, 3]: 0.593 | GE-HTS (OXPHOS gene expression; [3]): −1.531 | nucOX (nuOXPHOS transcripts; [3]): −1.261 | ROS (reactive oxygen species; [3]): 1.449 | ΔΨm [2, 3]: −2.723 | cyt c (cytochrome c; [3]): −2.613

CC(C)C[C@H]1C(=O)N2CCC[C@H]2[C@]2(O)O[C@](NC(=O)[C@@H]3C=C4c5cccc6[nH]c(Br)c(c56)C[C@H]4N(C)C3)(C(C)C)C(=O)N12 [bromocriptine]
Viability (C2C12 myotubes; [4]): 1.142 | mitoOX (mtOXPHOS transcripts; [4]): −0.322 | MTT [1, 4]: −1.667 | GE-HTS (OXPHOS gene expression; [4]): 0.006 | nucOX (nuOXPHOS transcripts; [4]): 0.199 | ROS (reactive oxygen species; [4]): 0.176 | ΔΨm [2, 4]: 0.037 | cyt c (cytochrome c; [4]): −0.064

Oc1c(Br)cc(Br)c2cccnc12 [broxyquinoline]
Viability (C2C12 myotubes; [4]): −2.006 | mitoOX (mtOXPHOS transcripts; [4]): −0.157 | MTT [1, 4]: −1.180 | GE-HTS (OXPHOS gene expression; [4]): −0.830 | nucOX (nuOXPHOS transcripts; [4]): −1.095 | ROS (reactive oxygen species; [4]): −1.081 | ΔΨm [2, 4]: 1.701 | cyt c (cytochrome c; [4]): 0.410

COc1cc2c(cc1OC)[C@@]13CCN4CC5=CCO[C@H]6CC(=O)N2[C@H]1[C@H]6[C@H]5C[C@H]43 [brucine]
Viability (composite Z-score) (C2C12 myotubes; Conc 20 μM): 1.605 | mitoOX (composite Z-score) (mtOXPHOS transcripts; Conc 20 μM): −0.887 | MTT (composite Z-score) ([1]; Conc 20 μM): −1.270 | GE-HTS (composite Z-score) (OXPHOS gene expression; Conc 20 μM): −1.106 | nucOX (composite Z-score) (nuOXPHOS transcripts; Conc 20 μM): −1.084 | ROS (composite Z-score) (reactive oxygen species; Conc 20 μM): 0.930 | ΔΨm (composite Z-score) ([2]; Conc 20 μM): 0.552 | cyt c (composite Z-score) (cytochrome c; Conc 20 μM): 0.660

COc1ccc(-c2cc(=O)c3c(O)cc(O[C@H]4O[C@H](CO[C@@H]5O[C@@H](C)[C@H](O)[C@@H](O)[C@H]5O)[C@@H](O)[C@H](O)[C@H]4O)cc3o2)cc1 [buddleoflavonoloside]
Viability (composite Z-score) (C2C12 myotubes; Conc 20 μM): 0.169 | mitoOX (composite Z-score) (mtOXPHOS transcripts; Conc 20 μM): 0.017 | MTT (composite Z-score) ([1]; Conc 20 μM): 0.006 | GE-HTS (composite Z-score) (OXPHOS gene expression; Conc 20 μM): 0.073 | nucOX (composite Z-score) (nuOXPHOS transcripts; Conc 20 μM): 0.114 | ROS (composite Z-score) (reactive oxygen species; Conc 20 μM): 0.265 | ΔΨm (composite Z-score) ([2]; Conc 20 μM): 0.050 | cyt c (composite Z-score) (cytochrome c; Conc 20 μM): 0.736

CCCCN1CCCCC1C(=O)Nc1c(C)cccc1C (stereo not shown) [bupivacaine]
Viability (C2C12 myotubes; [5]): −0.663 | Viability (C2C12 myotubes; [4]): −1.202 | mitoOX (mtOXPHOS transcripts; [5]): 0.002 | mitoOX (mtOXPHOS transcripts; [4]): 0.009 | MTT [1, 5]: −1.440 | MTT [1, 4]: −0.841 | GE-HTS (OXPHOS gene expression; [5]): −0.227 | GE-HTS (OXPHOS gene expression; [4]): 0.392 | nucOX (nuOXPHOS transcripts; [5]): −0.316 | nucOX (nuOXPHOS transcripts; [4]): 0.548 | ROS (reactive oxygen species; [5]): 0.545 | ROS (reactive oxygen species; [4]): 0.801 | ΔΨm [2, 5]: −0.938 | ΔΨm [2, 4]: 0.084 | cyt c (cytochrome c; [5]): −0.058 | cyt c (cytochrome c; [4]): 0.190

COC(=O)C[C@H]1C2(C)CC34OC5(C)O[C@@]6([C@H](OC(C)=O)C(OC(C)=O)[C@]7(C)C(/C(=C(/O)C(C)C)C(=O)O[C@H]7c7ccoc7)[C@@]6(O5)[C@H](OC(C)=O)[C@@]3(O)C2OC(=O)C(C)C)[C@]14C (stereo partly shown) [bussein]
Viability (C2C12 myotubes; [6]): −0.052 | Viability (C2C12 myotubes; [7]): 0.575 | mitoOX (mtOXPHOS transcripts; [6]): −0.868 | mitoOX (mtOXPHOS transcripts; [7]): 1.660 | MTT [1, 6]: −0.599 | MTT [1, 7]: −1.406 | GE-HTS (OXPHOS gene expression; [6]): −0.809 | GE-HTS (OXPHOS gene expression; [7]): 1.630 | nucOX (nuOXPHOS transcripts; [6]): −0.683 | nucOX (nuOXPHOS transcripts; [7]): 1.431 | ROS (reactive oxygen species; [6]): 0.656 | ROS (reactive oxygen species; [7]): −0.449 | ΔΨm [2, 6]: −0.807 | ΔΨm [2, 7]: 0.367 | cyt c (cytochrome c; [6]): 0.622 | cyt c (cytochrome c; [7]): −1.496

CCC[C@H]1CC2=C(C[C@@H](CC)CC3=C1C(=O)OC3=O)C(=O)OC2=O [byssochlamic acid]
Viability (composite Z-score) (C2C12 myotubes; Conc 20 μM): −0.241 | mitoOX (composite Z-score) (mtOXPHOS transcripts; Conc 20 μM): −0.458 | MTT (composite Z-score) ([1]; Conc 20 μM): −0.488 | GE-HTS (composite Z-score) (OXPHOS gene expression; Conc 20 μM): −0.230 | nucOX (composite Z-score) (nuOXPHOS transcripts; Conc 20 μM): −0.069 | ROS (composite Z-score) (reactive oxygen species; Conc 20 μM): 0.253 | ΔΨm (composite Z-score) ([2]; Conc 20 μM): −0.092 | cyt c (composite Z-score) (cytochrome c; Conc 20 μM): −1.053

NCCCCCN [cadaverine]
Viability (C2C12 myotubes; [6]): −1.003 | mitoOX (mtOXPHOS transcripts; [6]): −0.205 | MTT [1, 6]: −0.915 | GE-HTS (OXPHOS gene expression; [6]): −0.553 | nucOX (nuOXPHOS transcripts; [6]): −0.667 | ROS (reactive oxygen species; [6]): 0.160 | ΔΨm [2, 6]: −0.730 | cyt c (cytochrome c; [6]): −0.135

CC1=CC2C(C(C)C)CCC(C)(O)C2CC1 (stereo not shown) [cadin-4-en-10-ol]
Viability (C2C12 myotubes; [8]): −0.101 | mitoOX (mtOXPHOS transcripts; [8]): −1.252 | MTT [1, 8]: −0.041 | GE-HTS (OXPHOS gene expression; [8]): −0.610 | nucOX (nuOXPHOS transcripts; [8]): −0.244 | ROS (reactive oxygen species; [8]): 0.180 | ΔΨm [2, 8]: −0.297 | cyt c (cytochrome c; [8]): 0.328

C[C@@]12CCc3occc3[C@H]1CC[C@@]13C[C@@H](CC[C@H]12)[C@@](O)(CO)C3 [cafestol]
Viability (C2C12 myotubes; [6]): 0.025 | mitoOX (mtOXPHOS transcripts; [6]): −1.543 | MTT [1, 6]: 1.124 | GE-HTS (OXPHOS gene expression; [6]): −0.833 | nucOX (nuOXPHOS transcripts; [6]): −0.385 | ROS (reactive oxygen species; [6]): 0.832 | ΔΨm [2, 6]: 1.283 | cyt c (cytochrome c; [6]): 1.374

O=C(O)CN(CC(=O)O)Cc1cc2c(cc1O)Oc1cc(O)c(CN(CC(=O)O)CC(=O)O)cc1C21OC(=O)c2ccccc21 [calcein]
Viability (C2C12 myotubes; [3]): 5.567 | mitoOX (mtOXPHOS transcripts; [3]): −0.829 | MTT [1, 3]: −0.243 | GE-HTS (OXPHOS gene expression; [3]): −0.625 | nucOX (nuOXPHOS transcripts; [3]): −0.468 | ROS (reactive oxygen species; [3]): 11.668 | ΔΨm [2, 3]: −3.437 | cyt c (cytochrome c; [3]): 0.465
